Data from patent US6576595B1, “Xanthone derivatives, processes for their preparation and their use for controlling harmful fungi, and compositions comprising these derivatives” (BASF Aktiengesellschaft, priority 2001, dated 2003).

Experiments:
[1] = test system: mildew of wheat (Blumeria graminis forma specialis tritici); assay: activity against powdery mildew of wheat (protective spray test on potted wheat seedlings); format: in vivo; conditions: wheat seedlings cultivar Kanzler, sprayed 24 h before inoculation, assessed visually after 7 days, untreated plants 90% infected
Procedure: The active compounds were prepared separately or jointly as a 10% strength emulsion in a mixture of 70% by weight of cyclohexanone, 20% by weight of Nekanil® LN (Lutensol® AP6, wetting agent having emulsifying and dispersing action based on ethoxylated alkylphenols) and 10% by weight of Wettol® EM (nonionic emulsifier based on ethoxylated castor oil) and diluted with water to the desired concentration.
Use example—activity against powdery mildew of wheat
Leaves of potted wheat seedlings of the cultivar “Kanzler” were sprayed to runoff point with an aqueous preparation of active compound which had been prepared from a stock solution of 10% of active compound, 63% of cyclohexanone and 27% of emulsifier. 24 hours after the spray coating had dried on, the leaves were dusted with spores of mildew of wheat (Blumeria graminis forma specialis tritici). The test plants were then placed in a greenhouse at 20-24° C. and 60 to 90% relative atmospheric humidity.
After 7 days, the extent of the mildew development was determined visually in % infection of the entire leaf area.

melting point	Compound	extent of the mildew development in % infection of the entire leaf area ([1]; 4 ppm active compound)	extent of the mildew development in % infection of the entire leaf area ([1]; 16 ppm active compound)
158 °C	COc1cc(C)c2c(=O)c3c(OC)cccc3oc2c1OC	–	–
162 °C	COc1cc(C)c2c(=O)c3c(oc2c1OC)C(Br)=CCC3(C)OC (centres unmarked)	–	–

Compound	melting point	extent of the mildew development in % infection of the entire leaf area ([1]; 4 ppm active compound)	extent of the mildew development in % infection of the entire leaf area ([1]; 16 ppm active compound)
COc1cc(C)c2c(=O)c3c(C)c(Cl)ccc3oc2c1OC [I-5, 7-chloro-3,4-dimethoxy-1,8-dimethylxanthen-9-one]	180 °C	not more than 3%	not more than 3%
